Laboratory results reported in US8183252B2, “Heterocyclic aspartyl protease inhibitors” (Schering Corporation, priority 2007, dated 2012).
pKi: −log10 of the molar value.

Target: T1, human BACE1 (sproBACE1) (Homo sapiens, UniProt P56817)
T1 construct: sBACE1, corresponding to amino acids 1-454; made in house; host or cells: Sf9 insect cells (baculovirus), secreted into the medium
Experiment: BACE-1 Peptide Hydrolysis Assay (HTRF)
Assay type: biochemical
Details: read-out: BACE-1 Ki
Summary of the method: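 Secreted sBACE1-myc/His from baculovirus-infected sf9 cells, purified on Q-sepharose then Ni-NTA. Substrate-initiated reactions ran 3 hr at 30° C., then were stopped with KF buffer (pH 8.0) containing SA-XL665 for HTRF read-out. EC50 was fitted by sigmoidal dose-response to percent change in ratio.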

T1 sequence (P56817 22-454): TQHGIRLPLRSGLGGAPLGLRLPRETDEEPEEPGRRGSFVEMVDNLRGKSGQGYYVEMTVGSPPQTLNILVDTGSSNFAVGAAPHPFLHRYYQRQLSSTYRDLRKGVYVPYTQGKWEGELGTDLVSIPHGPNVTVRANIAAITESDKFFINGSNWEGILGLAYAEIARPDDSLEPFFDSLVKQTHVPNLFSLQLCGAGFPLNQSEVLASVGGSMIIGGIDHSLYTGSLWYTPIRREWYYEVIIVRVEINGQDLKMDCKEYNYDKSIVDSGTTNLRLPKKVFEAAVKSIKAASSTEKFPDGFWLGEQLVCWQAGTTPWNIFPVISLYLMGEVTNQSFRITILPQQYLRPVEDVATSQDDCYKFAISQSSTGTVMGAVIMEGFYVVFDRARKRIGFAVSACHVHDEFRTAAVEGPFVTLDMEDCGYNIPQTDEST

SMILES | pKi
CN1C(=N)NC(c2ccccc2)(c2cccc(-c3cccc(CO)c3)c2)C1=O (stereo not shown) | > 5.30
COCC1CCCN1C(=O)c1cccc(CN2C(=N)NC(C)(c3cccc(-c4cccc(Cl)c4)c3)C2=O)c1 (stereo not shown) | > 5.30
N=C1NC(c2ccccc2)(c2ccccc2)C(=O)N1Cc1cccc(NS(=O)(=O)C2CC2)c1 | > 5.30
CN1C(=N)NC(CCc2ccccc2)(CC2CCCC(Nc3ccccn3)C2)C1=O (stereo not shown) | > 5.30
N=C1NC(c2ccccc2)(c2ccccc2)C(=O)N1CC1CCN(C(=O)CN)CC1 | > 5.30
N=C1NC(c2ccccc2)(c2ccccc2)C(=O)N1CC1CCN(S(=O)(=O)c2ccc(F)c(Cl)c2)CC1 [piperidine, 1-[(3-chloro-4-fluorophenyl)sulfonyl]-4-[(2-imino-5-oxo-4,4-diphenyl-1-imidazolidinyl)methyl]-] | > 5.30
CN1C(=N)N[C@@](c2cccc(-c3ccc(F)c(C#N)c3)c2)(C2CC2)C1=O | > 5.30
COc1ccc(S(=O)(=O)N2CCC(CN3C(=N)NC(c4ccccc4)(c4ccccc4)C3=O)CC2)cc1 [piperidine, 4-[(2-imino-5-oxo-4,4-diphenyl-1-imidazolidinyl)methyl]-1-[(4-methoxyphenyl)sulfonyl]-] | > 5.30
CN1C(=N)NC(C)(c2cccc(-c3cc(Cl)ccc3CNC(=O)Nc3ccccc3)c2)C1=O (stereo not shown) [urea, N-[[5-chloro-3′-(2-imino-1,4-dimethyl-5-oxo-4-imidazolidinyl)[1,1′-biphenyl]-2-yl]methyl]-N′-phenyl-] | > 5.30
CCc1sc([C@@]2(C)NC(=N)N(C)C(=O)[C@@H]2CC)cc1-c1cccc(C#N)c1 | > 5.30
CCCCS(=O)(=O)Nc1ccc(CN2C(=N)NC(c3ccccc3)(c3ccccc3)C2=O)cc1 [1-butanesulfonamide, N-[4-[(2-imino-5-oxo-4,4-diphenyl-1-imidazolidinyl)methyl]phenyl]-] | > 5.30
CN1C(=N)N[C@](CCC2CCCCC2)(C[C@H]2CCC[C@@H](NC(=O)c3cc(Cl)nc(Cl)c3)C2)C1=O | > 5.30
CN1C(=N)NC(C)(c2cccc(-c3cc(Cl)ccc3CNC(=O)Nc3ccc(Cl)cc3)c2)C1=O (stereo not shown) [urea, N-[[5-chloro-3′-(2-imino-1,4-dimethyl-5-oxo-4-imidazolidinyl)[1,1′-biphenyl]-2-yl]methyl]-N′-(4-chlorophenyl)-] | > 5.30
CCCCS(=O)(=O)N1CCC(CN2C(=N)NC(c3ccccc3)(c3ccccc3)C2=O)CC1 [piperidine, 1-(butylsulfonyl)-4-[(2-imino-5-oxo-4,4-diphenyl-1-imidazolidinyl)methyl]-] | > 5.30
CN1C(=N)N[C@](C)(c2cc(Br)c(-c3cncc(Br)c3)s2)CC1=O | > 5.30
CCC[C@H]1C(=O)N(C)C(=N)N[C@]1(C)c1cccc(I)c1 | > 5.30
CN1C(=N)N[C@](C)(c2scc(C#N)c2Cl)CC1=O | > 5.30
CN1C(=N)NC(c2ccccc2)(c2cccc(NS(C)(=O)=O)c2)C1=O (racemic) | > 5.30
CN1C(=N)N[C@](CCC2CCCCC2)(C[C@H]2CCC[C@H](NCCc3ccccc3)C2)C1=O | > 5.30
CN1C(=N)N[C@](C)(c2cc(-c3cc(Cl)cc(C#N)c3)cs2)[C@H](C2CC2)C1=O | > 5.30
CN1C(=N)N[C@](C)(c2ncc(-c3cccc(Cl)c3)s2)CC1=O | > 5.30
CN1C(=N)N[C@](CCC2CCCCC2)(C[C@H]2CCC[C@@H](NC(=O)NC(=O)c3ccccc3)C2)C1=O | > 5.30
CN1C(=N)N[C@](C)(c2ccc(F)cc2F)[C@@H](c2ccc(N3CCCS3(=O)=O)cc2)C1=O | > 5.30
CN1C(=N)N[C@](C)(c2cc(-c3cncc(Cl)n3)cs2)CC1=O | > 5.30
CCCN(CCC)C(=O)c1ncc(CN2C(=N)NC(c3ccccc3)(c3ccccc3)C2=O)[nH]1 | > 5.30
CN1C(=N)N[C@](CCC2CCCCC2)(C[C@H]2CCC[C@H](N3CC[C@H](O)C3)C2)C1=O | > 5.30
CN1C(=N)NC(c2ccccc2)(c2cc(-c3cccc(Cl)c3)cs2)C1=O (stereo not shown) [5-[4-(3-CHLOROPHENYL)-2-THIENYL]-2-IMINO-3-METHYL-5-PHENYL-4-IMIDAZOLIDINONE] | > 5.30
CN1C(=N)N[C@](CCc2ccccc2)(C[C@H]2CCC[C@@H](NC3CCCCC3)C2)C1=O | > 5.30
